Structures can show the parent of a compound that is named as a salt. Where two headings read alike, the source gives them in different places.
What was measured:
[1] = target: T1, hD2S (cloned human dopamine D2S receptor) (Homo sapiens, UniProt P14416); test: Determination of Ki at D2S receptor (radioligand binding, [3H]-Raclopride); conditions: CHO-K1 recombinant cells, [3H]-Raclopride 4 nM
T1 construct: expressed in transfected cells; host or cells: CHO-K1
In short: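 Displacement of 4 nM [3H]-Raclopride from membranes of CHO-K1 cells expressing the receptor, 2 h at r.t. in 50 mM Tris-HCl pH 7.4 with 120 mM NaCl, 5 mM KCl, 5 mM MgCl2, 1 mM EDTA. Non-specific binding defined with 0.1 mM haloperidol; filter-bound radioactivity compared with control.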

[2] = target: cloned human SERT receptor (Homo sapiens, UniProt P31645); test: Determination of Ki at SERT receptor (SPA binding, [3H]-Citalopram); conditions: HEK293 recombinant cells, [3H]-Citalopram 2 nM
In short: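 HEK293-expressed human SERT; [3H]-citalopram at 2 nM final, nonspecific binding with 0.1 mM venlafaxine. Incubated 3 h at r.t. in 50 mM Tris-HCl pH 7.4, 150 mM NaCl, 5 mM KCl with SPA beads. Bead-proximal radioactivity compared with control values.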

[3] = target: T2, recombinant rat 5-HT7 receptor (Rattus norvegicus, UniProt P32305); test: Determination of Kb at 5-HT7 receptor, pCRE-Luc reporter gene assay in CHO cells; type: cell-based; conditions: for antagonistic activity at rat recombinant 5-HT7 receptor: pCRE-Luc reporter gene assay
T2 construct: expressed in transfected cells
Protocol: A stable CHO cell line expressing recombinant rat 5-HT7 receptor and pCRE-Luc reporter system was used for cell-based assay. The assay offers a non-radioactive based approach to determine binding of a compound to GPCRs. In this specific assay, the level of intracellular cAMP which is modulated by activation or inhibition of the receptor is measured. The recombinant cells harbor luciferase reporter gene under the control of cAMP response element.
The above cells were grown in 96 well clear bottom white plates in Hams F12 medium containing 10% fetal bovine serum (FBS). Prior to the addition of compounds or standard agonist, cells were serum starved overnight. Increasing concentrations of test compound were added along with 1 μM of serotonin in Opti-MEM medium to the cells. The incubation was continued at 37° C. in CO2 incubator for 4 hours. Medium was removed and cells were washed with phosphate buffered saline. The cells were lysed and luciferase activity was measured in a Luminometer. Luminescence units were plotted against the compound concentrations using GraphPad Prism software. EC50 values of the compounds were defined as the concentration required in reducing the luciferase activity by 50%. The Kb values were calculated by feeding the concentration of agonist used in the assay and its EC50 value in the same software.

[4] = target: T2, recombinant rat 5-HT7 receptor; test: as above; type: cell-based
[5] = Rodent brain penetration study; type: in vivo; conditions: rat, po, fed male Wistar rats, 3 mg/kg p.o., mean ± S.D, n = 3, read-out: Rat Brain Penetration (Cbrain/Cplasma) at 3 mg/kg, p.o. @ 1 h
Protocol: Male Wistar rats (260±40 g) were used as experimental animals. Three animals were housed in each cage. Animals were given water and food ad libitum throughout the experiment and maintained on a 12 h light/dark cycle.
Brain penetration was determined in discrete manner in rats. One day prior to dosing, male Wistar rats were acclimatized and randomly grouped according to their body weight. At each time point (0.50, 1 and 2 h), n=3 animals were used.
The test compounds were suitably preformulated and administered orally at (free base equivalent) 3 mg/kg. Blood samples were removed via cardiac puncture under isoflurane anesthesia. The animals were sacrificed to collect brain tissue. Plasma was separated and brain samples were homogenized. Plasma and brain homogenates were stored frozen at −20° C. until analysis. The concentrations of the test compounds in plasma and brain were determined using LC-MS/MS method.
The test compounds were quantified in plasma and brain homogenate by qualified LC-MS/MS method using suitable extraction technique in the calibration range of 1-500 ng/mL. Study samples were analyzed using calibration samples in the batch and quality control samples spread across the batch. Extent of brain-plasma ratio (Cbrain/Cplasma) was calculated.

[6] = Rodent pharmacokinetic study; type: in vivo, Male Wistar rats; conditions: rat, plasma, mean ± S.D, n = 3; for bioavailability: oral 3 mg/kg vs intravenous 1 mg/kg, read-out: F (Bioavailability)
Protocol: Male Wistar rats (260±50 g) were used as experimental animals. Animals were housed individually in polypropylene cage. Two days prior to study, male Wistar rats were anesthetized with isoflurane for surgical placement of jugular vein catheter. Rats were randomly divided for oral (3 mg/kg) and intravenous (1 mg/kg) dosing (n=3/group) and fasted overnight before oral dosing (p.o.). However, food and water were provided ad libitum to the rats allocated for intravenous dosing.
At pre-determined time points, blood samples were collected through jugular vein and replenished with an equivalent volume of normal saline. Collected blood was transferred into a labeled eppendorf tube containing 10 μL of heparin as an anticoagulant. Typically blood samples were collected at 0.08, 0.25, 0.5, 1, 2, 4, 6, 8, and 24 h post dose. Blood samples were centrifuged at 4000 rpm for 10 min. Plasma was separated and stored frozen at −80° C. until analysis. The concentrations of the test compounds were quantified in plasma by qualified LC-MS/MS method using suitable extraction technique. The test compounds were quantified in the calibration range around 1-1000 ng/mL in plasma. Study samples were analyzed using calibration samples in the batch and quality control samples spread across the batch.
Pharmacokinetic parameters Cmax, AUCt, t1/2. Clearance and Bioavailability (F) were calculated using standard non-compartmental model by using Phoenix WinNonlin 6.0.4 version software package.

[7] = rat receptor, with 1 μM serotonin, luciferase readout, read-out: Kb at 5-HT7 receptor
[8] = intravenous (bolus) 1 mg/kg, male Wistar rats
[9] = oral (gavage) 3 mg/kg, fasted male Wistar rats

T1 sequence (P14416 1-414 isoform P14416-2): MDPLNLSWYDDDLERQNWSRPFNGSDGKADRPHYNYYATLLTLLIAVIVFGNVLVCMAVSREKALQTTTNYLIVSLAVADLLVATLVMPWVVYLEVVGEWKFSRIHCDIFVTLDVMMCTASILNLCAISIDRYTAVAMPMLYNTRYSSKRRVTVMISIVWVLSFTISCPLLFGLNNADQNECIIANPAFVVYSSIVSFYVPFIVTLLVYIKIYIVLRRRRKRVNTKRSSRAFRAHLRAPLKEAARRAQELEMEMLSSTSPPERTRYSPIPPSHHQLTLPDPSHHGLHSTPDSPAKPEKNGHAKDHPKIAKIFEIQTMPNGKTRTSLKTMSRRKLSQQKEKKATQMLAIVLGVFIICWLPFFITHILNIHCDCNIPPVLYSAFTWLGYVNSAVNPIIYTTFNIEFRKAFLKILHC
T2 sequence (P32305 whole entry): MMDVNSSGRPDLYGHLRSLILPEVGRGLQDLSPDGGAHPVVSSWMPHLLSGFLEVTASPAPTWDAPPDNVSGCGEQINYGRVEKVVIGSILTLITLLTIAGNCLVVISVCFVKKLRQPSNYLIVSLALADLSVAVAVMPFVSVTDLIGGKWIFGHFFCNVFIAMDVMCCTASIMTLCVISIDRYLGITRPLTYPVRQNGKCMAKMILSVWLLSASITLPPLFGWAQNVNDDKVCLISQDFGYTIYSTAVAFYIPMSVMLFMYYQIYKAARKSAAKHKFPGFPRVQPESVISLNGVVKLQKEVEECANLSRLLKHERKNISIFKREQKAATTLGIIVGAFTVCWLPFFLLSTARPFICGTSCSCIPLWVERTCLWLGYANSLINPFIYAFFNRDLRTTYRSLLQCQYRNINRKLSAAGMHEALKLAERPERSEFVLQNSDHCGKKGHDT
Sequence of cloned human SERT receptor (P31645 whole entry): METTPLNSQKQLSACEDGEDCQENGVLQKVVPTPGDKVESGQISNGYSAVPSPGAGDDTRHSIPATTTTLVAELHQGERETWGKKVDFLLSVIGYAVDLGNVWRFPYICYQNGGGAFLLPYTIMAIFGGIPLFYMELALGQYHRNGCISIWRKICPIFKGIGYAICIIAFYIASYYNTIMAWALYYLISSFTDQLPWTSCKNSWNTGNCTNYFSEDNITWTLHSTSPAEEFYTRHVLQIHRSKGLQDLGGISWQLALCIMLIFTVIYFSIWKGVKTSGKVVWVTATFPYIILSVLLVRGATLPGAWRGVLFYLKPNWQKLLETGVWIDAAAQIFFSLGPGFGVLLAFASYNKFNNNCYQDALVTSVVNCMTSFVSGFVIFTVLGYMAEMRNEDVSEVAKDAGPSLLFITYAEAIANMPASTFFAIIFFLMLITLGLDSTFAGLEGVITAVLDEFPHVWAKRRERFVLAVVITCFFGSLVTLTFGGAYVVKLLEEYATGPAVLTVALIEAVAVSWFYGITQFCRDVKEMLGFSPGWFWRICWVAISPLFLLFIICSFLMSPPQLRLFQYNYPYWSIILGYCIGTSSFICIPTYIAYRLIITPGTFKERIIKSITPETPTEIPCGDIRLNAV

| SMILES | Ki ([1]; read-out: Ki hD2S) [nM] | Ki ([2]; read-out: Ki hSERT) [nM] | antagonistic activity at rat recombinant 5-HT7 receptor [3] | Kb [3, 7] [nM] | agonist activity at rat recombinant 5-HT7 receptor [4] | Kp at 1 h ([5]; brain/plasma) | AUC(0-t) [6, 8] [ng·h/mL] | clearance [6, 8] [mL/min/kg] | half-life [6, 8] [h] | bioavailability ([6]; male Wistar rats) [%] | AUC(0-t) [6, 9] [ng·h/mL] | Cmax [6, 9] [ng/mL] | half-life [6, 9] [h] | Ki ([1]; Ki hD2S) [nM] | Ki ([2]; Ki hSERT) [nM] | Kb [3] [nM] | Kp at 1 h ([5]; in vivo) |
| --- | --- | --- | --- | --- | --- | --- | --- | --- | --- | --- | --- | --- | --- | --- | --- | --- | --- |
| O=C1C[C@@H]2CCCN2C(=O)N1CCCCN1CCN(c2nsc3ccccc23)CC1 [Example 2, 2-[4-(4-Benzo[d]isothiazol-3-yl-piperazin-1-yl)-butyl]-tetrahydro-pyrrolo[1,2-c]pyrimidine-1,3-dione oxalate] | 5.4 | 1060 | antagonistic activity | 0.6 | no detectable agonist activity | 0.49 ± 0.08 | 544 ± 19 | 30 ± 1 | 2 ± 0.7 | 15 ± 3 | 244 ± 53 | 253 ± 59 | 1.3 ± 0.1 | – | – | – | – |
| O=C1C[C@@H]2CCCN2C(=O)N1CCCCN1CCN(c2cccc3sccc23)CC1 [Example 4, 2-[4-(4-Benzo[b]thiophen-4-yl-piperazin-1-yl)-butyl]-tetrahydro-pyrrolo[1,2-c]pyrimidine-1,3-dione oxalate] | 1.83 | 228 | – | – | – | 2.14 ± 0.88 | 350 ± 40 | 48 ± 5 | 0.8 ± 0.2 | 16 ± 1 | 169 ± 14 | 77 ± 2 | 1.1 ± 0.3 | – | – | – | – |
| O=C1C[C@@H]2C[C@H]3C[C@H]3N2C(=O)N1CCCCN1CCN(c2nsc3ccccc23)CC1 [Example 11, 3-[4-(4-Benzo[d]isothiazol-3-yl-piperazin-1-yl)-butyl]-hexahydro-1b,3-diaza-cyclopropa[a]indene-2,4-dione oxalate] | – | – | antagonistic activity | – | no detectable agonist activity | – | 412 ± 44 | 41 ± 5 | 1.3 ± 0.1 | 8 ± 5 | 98 ± 63 | 94 ± 52 | 2 ± 0.2 | 0.62 | 1280 | 0.17 | 0.09 ± 0.16 |
| O=C1C[C@@H]2C[C@H](F)CN2C(=O)N1CCCCN1CCN(c2nsc3ccccc23)CC1 [Example 9, 2-[4-(4-Benzo[d]isothiazol-3-yl-piperazin-1-yl)-butyl]-6-fluoro-tetrahydro-pyrrolo[1,2-c]pyrimidine-1,3-dione oxalate] | 2.78 | 833 | antagonistic activity | 0.7 | no detectable agonist activity | 0.4 ± 0.13 | 415 ± 69 | 40 ± 6 | 1.8 ± 0.1 | 14 ± 2 | 178 ± 23 | 164 ± 43 | 1.4 ± 0.3 | – | – | – | – |
